Data on twelve compounds can be found in ChEMBL document CHEMBL1201862, “PubChem BioAssay data set” (2004).

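Protocol summary: plate cells (96-well), add compound at 5 concentrations, incubate 48 h, interpolate endpoints linearly. GI50 = concentration required for 50% inhibition of growth.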 Activity calls are given as the source filed them. Rule as the data show it: active = GI50 up to about 1.1 µM and inactive = higher. Bounds are passed on as bounds.

Common to all, as to assay: NCI anticancer screen, dose series, 48 h
Experiment [1] deals with HCC 2998.
Experiment [2] has as its system EKVX.
For experiment [3], the system named is SK-MEL-5.
In experiment [4] the test system is ACHN.
Experiment [5] deals with SR.
In experiment [6] the test system is COLO 205.
Experiment [7] has as its system IGROV-1.
In experiment [8] the test system is NCI-H23.
Experiment [9] has as its system SF-295.
Experiment [10] relates to SF-539.
For experiment [11], the system named is SK-OV-3.
Experiment [12] deals with Malme-3M.
The subject of experiment [13] is KM12.
Experiment [14] concerns HCT-15.
For experiment [15], the system named is RXF 393.
Experiment [16] deals with K562.
The test system of experiment [17] is RPMI-8226.
Experiment [18] has as its system MDA-MB-231.
For experiment [19], the system named is MDA-MB-435.

In the case of `COc1cc(C(CC(OC)OC)=C(C#N)C#N)cc(OC)c1OC`, the GI50 in experiment [1] is 18.7 µM (inactive); in experiment [2] it was 34.9 µM (inactive); in experiment [3], 7.4 µM (inactive); in experiment [4], 26.7 µM (inactive); in experiment [5], 14.5 µM (inactive); in experiment [6], 9.35 µM (inactive). In addition, the GI50 was 39.4 µM (inactive) in experiment [7]; 28.1 µM (inactive) in [8]; 19.5 µM (inactive) in [9]; 13.7 µM (inactive) in experiment [10]; 32.4 µM (inactive) in experiment [11]; 26.1 µM (inactive) in experiment [12]. The GI50 is 18.7 µM (inactive) in experiment [13], 16.9 µM in [14] and 25.2 µM (inactive) in experiment [15].

For `CCN(CC)C(=O)Cc1c(C(=O)N(CC)CC)c(=O)nc2sccn12`, the GI50 in experiment [1], in experiment [2], in [16], in experiment [4], in experiment [5] and in [6] was > 100 µM (inactive) each time. Further, the GI50 in experiment [7], in experiment [17], in experiment [8], in [9], in experiment [10] and in experiment [11] was > 100 µM (inactive) each time. Further, the GI50 was > 100 µM (inactive) in experiment [12], > 100 µM (inactive) in experiment [13], above 100 µM in experiment [14] and > 100 µM (inactive) in experiment [15].

With `Cc1cn([C@@H]2C[C@H]2CO)c(=O)[nH]c1=O`, the GI50 in [18], in [1], in experiment [2], in experiment [16], in experiment [3] and in experiment [4] was > 100 µM (inactive) each time. Further, the GI50 in experiment [5] was > 100 µM (inactive); in experiment [6], > 100 µM (inactive); in [7], > 100 µM (inactive); in experiment [17], > 100 µM (inactive); in [8], > 100 µM (inactive); in experiment [10], 57 µM (inactive). Also, the GI50 in [12] was > 100 µM (inactive); in [13] it was > 100 µM (inactive); in experiment [14] it was above 100 µM; in [19] it was > 100 µM (inactive); in [15], > 100 µM (inactive).

Turning to `Clc1ccc(OCc2nnc(CCCCCCCCc3nnc(COc4ccc(Cl)cc4)o3)o2)cc1`, the GI50 in [18] is 48 µM (inactive); in experiment [1], > 100 µM (inactive); in experiment [2], > 100 µM (inactive); in [16], 48.1 µM (inactive); in experiment [3], > 100 µM (inactive); in experiment [4], > 100 µM (inactive). In addition, the GI50 in experiment [6] was > 100 µM (inactive); in [17], > 100 µM (inactive); in experiment [8], 79.3 µM (inactive); in experiment [9], > 100 µM (inactive); in experiment [11] it was 57.8 µM (inactive); in experiment [12], 3.58 µM (inactive). Further, the GI50 in [13] was > 100 µM (inactive); in [14], above 100 µM; in experiment [19] it was > 100 µM (inactive); in [15], 47.3 µM (inactive).

For `Cc1c2ccccc2c(=O)n2c(-c3ccccn3)cccc12`, the GI50 in experiment [1] is > 100 µM (inactive); in [2] it was > 100 µM (inactive); in experiment [16], > 100 µM (inactive); in [3], > 100 µM (inactive); in experiment [4] it was > 100 µM (inactive); in [5], 54 µM (inactive). For the same compound, the GI50 in experiment [6], in experiment [7], in experiment [17], in experiment [8], in experiment [9] and in experiment [10] was > 100 µM (inactive) each time. Besides, the GI50 is > 100 µM (inactive) in experiment [11]; > 100 µM (inactive) in experiment [12]; > 100 µM (inactive) in [13]; above 100 µM in experiment [14]; > 100 µM (inactive) in [15].

For `O=c1[nH]nc(Nc2ccccc2)c2nnn(C3CCCCC3)c12`, the GI50 in [18], in [1], in experiment [2], in experiment [16], in [3] and in experiment [4] was > 100 µM (inactive) in each case. Further, the GI50 in experiment [5], in [6], in experiment [17], in experiment [8], in experiment [9] and in [12] was > 100 µM (inactive) in each case. Moreover, the GI50 in [13] is > 100 µM (inactive); in [14], above 100 µM; in experiment [19] it was > 100 µM (inactive).

Take `COC(=O)/C(=N\O)C(C(=O)C=C(C)C)C(=O)C(=O)Nc1ccccc1C` (stereo unspecified): the GI50 in experiment [1], in experiment [2], in [16], in [3], in experiment [4] and in [5] was > 100 µM (inactive) in each case. Besides, the GI50 in [6], in experiment [7], in [17], in [8], in [9] and in [10] was > 100 µM (inactive) each time. Moreover, the GI50 was > 100 µM (inactive) in experiment [11]; > 100 µM (inactive) in experiment [12]; > 100 µM (inactive) in experiment [13]; above 100 µM in [14]; > 100 µM (inactive) in experiment [15].

On to `Clc1ccc(Nc2nc3ccccc3nc2-c2cccs2)cc1Cl`, for which the GI50 was 32.1 µM (inactive) in experiment [1]; 69.5 µM (inactive) in experiment [2]; 32.1 µM (inactive) in [4]; 22.8 µM (inactive) in experiment [5]; 26.1 µM (inactive) in [6]; 45.2 µM (inactive) in experiment [17]. In addition, the GI50 in experiment [8] is 37.8 µM (inactive); in [9] it was 40.4 µM (inactive); in [10], 45.3 µM (inactive); in experiment [11], > 100 µM (inactive); in experiment [12], > 100 µM (inactive); in experiment [14], 10.3 µM. Moreover, the GI50 in [15] was 22.6 µM (inactive).

Regarding `CCN1C(C)=NC2C(=O)c3ccccc3C(=O)C21` (stereo unspecified), the GI50 in experiment [1] was 27.4 µM (inactive); in experiment [2], > 10 µM (inactive); in experiment [16], 78.9 µM (inactive); in experiment [3], 24.1 µM (inactive); in experiment [4], 74.8 µM (inactive); in [5], 52.5 µM (inactive). The GI50 was 33.5 µM (inactive) in experiment [6]; 38.1 µM (inactive) in experiment [7]; 55.7 µM (inactive) in experiment [17]; 50.7 µM (inactive) in experiment [8]; 82.2 µM (inactive) in [9]; 40.3 µM (inactive) in experiment [10]. Also, the values for the GI50 in [12], in experiment [14] and in [15] were 40 µM (inactive), 57.4 µM and > 100 µM (inactive), respectively.

For the compound `O=C(CN1CCOCC1)Nc1ccc2c(c1)C1Oc3ccccc3CC1CO2` (stereo unspecified), the GI50 in [18] is > 100 µM (inactive); in experiment [1] it was > 100 µM (inactive); in experiment [2] it was > 100 µM (inactive); in experiment [16] it was > 100 µM (inactive); in [3] it was 58.9 µM (inactive); in [4] it was > 100 µM (inactive). For the same compound, the GI50 in [5], in experiment [6], in experiment [7], in experiment [17], in [8] and in experiment [9] was > 100 µM (inactive) each time. Further, the GI50 was > 100 µM (inactive) in [10]; > 100 µM (inactive) in experiment [11]; > 100 µM (inactive) in experiment [12]; > 100 µM (inactive) in experiment [13]; above 100 µM in experiment [14]; > 100 µM (inactive) in [19].

As for `CS(=O)(=O)OCCN1CCN(C(=O)c2ccc(Cl)c3c(Nc4ccc(S(=O)(=O)N=C(N)N)cc4)c4ccccc4nc23)CC1`, the GI50 in experiment [1], in experiment [16], in experiment [3], in [4], in experiment [5] and in experiment [6] was > 100 µM (inactive) throughout. For the same compound, the GI50 in experiment [7], in experiment [17], in experiment [8], in experiment [9], in experiment [10] and in experiment [11] was > 100 µM (inactive) throughout. Besides, the GI50 in [12] was > 100 µM (inactive); in experiment [13], > 100 µM (inactive); in experiment [14], above 100 µM; in [15], > 100 µM (inactive).

Turning to `CCN(CC)Cc1cc(Nc2ccnc3ccc4nn(C)nc4c23)ccc1O`, the GI50 in experiment [1] is 13.3 µM (inactive); in experiment [16], > 100 µM (inactive); in [3] it was 16.3 µM (inactive); in experiment [4], 9.25 µM (inactive); in [5], 74.6 µM (inactive); in experiment [6] it was 5.02 µM (inactive). Moreover, the GI50 in experiment [7] is 25.2 µM (inactive); in [17], 7.85 µM (inactive); in [8] it was 15.3 µM (inactive); in [9], 13.6 µM (inactive); in [10], 13.6 µM (inactive); in experiment [11] it was 18.5 µM (inactive). The GI50 is 16.9 µM (inactive) in experiment [12], 10.5 µM (inactive) in [13], 16.7 µM in [14] and 9.25 µM (inactive) in [15].
